Assay results published in the CheMixHub viscosity set.

Experiment: xn = mol fraction of the nth substance listed

CC(=O)CC(C)C + CC(=O)O
viscosity [mPa·s]
Details | 293.15 K | 298.15 K | 308.15 K | 318.15 K
101.32 kPa, x1 = 0.048 | 1.179 | 1.085 | 0.9387 | 0.82
101.32 kPa, x1 = 0.102 | – | – | – | 0.7844
101.32 kPa, x1 = 0.103 | 1.122 | 1.037 | 0.8955 | –
101.32 kPa, x1 = 0.164 | 1.065 | 0.9866 | 0.8505 | 0.7456
101.32 kPa, x1 = 0.233 | – | – | – | 0.708
101.32 kPa, x1 = 0.234 | 1.004 | 0.9325 | 0.803 | –
101.32 kPa, x1 = 0.313 | – | – | – | 0.6696
101.32 kPa, x1 = 0.314 | 0.9417 | 0.8743 | 0.7592 | –
101.32 kPa, x1 = 0.405 | – | – | – | 0.6271
101.32 kPa, x1 = 0.406 | 0.8773 | 0.8108 | 0.7072 | –
101.32 kPa, x1 = 0.514 | 0.8105 | 0.752 | 0.6636 | 0.5844
101.32 kPa, x1 = 0.646 | – | – | – | 0.5401
101.32 kPa, x1 = 0.647 | 0.7427 | 0.688 | 0.6078 | –
101.32 kPa, x1 = 0.805 | – | 0.6272 | 0.5546 | 0.4944
101.32 kPa, x1 = 0.806 | 0.6691 | – | – | –
101.33 kPa, x1 = 0.048 | 1.179 | 1.085 | 0.9387 | 0.82
101.33 kPa, x1 = 0.102 | – | – | – | 0.7844
101.33 kPa, x1 = 0.103 | 1.122 | 1.037 | 0.8955 | –
101.33 kPa, x1 = 0.164 | 1.065 | 0.9866 | 0.8505 | 0.7456
101.33 kPa, x1 = 0.233 | – | – | – | 0.708
101.33 kPa, x1 = 0.234 | 1.004 | 0.9325 | 0.803 | –
101.33 kPa, x1 = 0.313 | – | – | – | 0.6696
101.33 kPa, x1 = 0.314 | 0.9417 | 0.8743 | 0.7592 | –
101.33 kPa, x1 = 0.405 | – | – | – | 0.6271
101.33 kPa, x1 = 0.406 | 0.8773 | 0.8108 | 0.7072 | –
101.33 kPa, x1 = 0.514 | 0.8105 | 0.752 | 0.6636 | 0.5844
101.33 kPa, x1 = 0.646 | – | – | – | 0.5401
101.33 kPa, x1 = 0.647 | 0.7427 | 0.688 | 0.6078 | –
101.33 kPa, x1 = 0.805 | – | 0.6272 | 0.5546 | 0.4944
101.33 kPa, x1 = 0.806 | 0.6691 | – | – | –

CCS + CCO
298.15 K, 101 kPa
Details | viscosity [mPa·s]
x1 = 0.026 | 1.048
x1 = 0.072 | 0.9731
x1 = 0.0942 | 0.9305
x1 = 0.1067 | 0.8559
x1 = 0.1258 | 0.8385
x1 = 0.2634 | 0.6525
x1 = 0.2941 | 0.6119
x1 = 0.3753 | 0.5821
x1 = 0.6123 | 0.4083
